Here are results for one molecule from patent US20120270237A9, “METHODS FOR THE IDENTIFICATION OF KINASE INTERACTING MOLECULES AND FOR THE PURIFICATION OF KINASE PROTEINS” (Cellzone AG, priority 2009, published 2012).

Each structure is given as a SMILES string.

One assay has as its target T1, PIK4Ca (Homo sapiens, UniProt P42356).
T1 construct: capturing and identification of kinases from L-363 cell lysate; endogenous in cells; host or cells: L-363 (DSMZ ACC49), treated with MG132 before harvest
Kind of assay: Kinobeads competition binding, L-363 cell lysate. Particulars: 10 μM free compound, L-363 lysate. The method, then: (§1) To one aliquot of cell lysate 10 μM of the free compound (FIG. 3, CZC31326) was added and allowed to bind to proteins in the lysate. Then the affinity matrix with the immobilized compound was added to capture proteins that were not interacting with the previously added free compound. Beads were separated from the lysate and bead bound proteins were eluted in SDS sample buffer and subsequently separated by SDS-Polyacrylamide gel electrophoresis (FIG. 8). Suitable gel bands were cut out and subjected to in-gel proteolytic digestion with trypsin. The second lysate aliquot was processed identically, however no free compound was added (DMSO solvent control). Peptides originating from samples 1 and 2 were labeled with iTRAQ reagents (iTRAQ 114 and iTRAQ 117) and the combined samples were analyzed with a nano-flow liquid chromatography system coupled online to a tandem mass spectrometer (LC-MS/MS) experiment followed by iTRAQ reporter ion quantification in the MS/MS spectra as described in Example 2.
(§2) For this experiment the human plasma cell leukaemia line L-363 was used (German Collection of Microorganisms and Cell Cultures, DSMZ number ACC49, Braunschweig, Germany). Cells were treated for three hours with 20 μM of the proteasome inhibitor MG132 (Z-Leu-Leu-Leu-al, Sigma C2211) prior to cell harvesting.

The target in a further assay is T2, NIK (Homo sapiens, UniProt Q99558).
T2 construct: capturing and identification of kinases from L-363 cell lysate; endogenous in cells; host or cells: L-363 (DSMZ ACC49), treated 3 h with 20 uM MG132 before harvest
T2 sequence (Q99558 whole entry): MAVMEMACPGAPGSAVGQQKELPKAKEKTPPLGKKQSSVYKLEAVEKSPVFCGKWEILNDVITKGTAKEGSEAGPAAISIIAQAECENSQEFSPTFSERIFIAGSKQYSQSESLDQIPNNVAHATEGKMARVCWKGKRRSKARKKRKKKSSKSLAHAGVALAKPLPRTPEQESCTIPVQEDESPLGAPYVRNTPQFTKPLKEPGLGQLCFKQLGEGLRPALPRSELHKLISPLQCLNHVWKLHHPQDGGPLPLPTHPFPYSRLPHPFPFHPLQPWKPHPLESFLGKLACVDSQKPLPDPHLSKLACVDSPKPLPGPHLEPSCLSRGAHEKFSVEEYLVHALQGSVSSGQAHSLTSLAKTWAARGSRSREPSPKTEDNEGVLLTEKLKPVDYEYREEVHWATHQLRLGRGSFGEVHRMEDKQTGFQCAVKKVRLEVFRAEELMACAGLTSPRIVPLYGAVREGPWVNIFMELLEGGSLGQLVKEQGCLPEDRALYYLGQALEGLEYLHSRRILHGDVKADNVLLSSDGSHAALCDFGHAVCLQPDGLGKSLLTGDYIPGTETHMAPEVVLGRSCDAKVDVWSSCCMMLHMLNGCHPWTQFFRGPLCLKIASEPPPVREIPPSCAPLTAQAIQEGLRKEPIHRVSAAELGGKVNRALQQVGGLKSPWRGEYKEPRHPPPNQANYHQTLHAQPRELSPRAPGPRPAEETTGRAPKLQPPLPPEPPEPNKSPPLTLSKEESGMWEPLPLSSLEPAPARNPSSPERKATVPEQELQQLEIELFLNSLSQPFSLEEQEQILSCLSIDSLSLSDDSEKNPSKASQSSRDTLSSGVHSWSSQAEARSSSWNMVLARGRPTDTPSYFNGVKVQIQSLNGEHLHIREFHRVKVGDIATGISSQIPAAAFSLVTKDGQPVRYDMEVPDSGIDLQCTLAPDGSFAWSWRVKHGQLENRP
Kind of assay: Kinobeads competition binding, L-363 cell lysate. The conditions noted are these: 10 μM free compound, L-363 lysate. The protocol: as §1, §2

The next assay deals with T3, NEK6 (Homo sapiens, UniProt Q9HC98).
T3 construct: capturing and identification of kinases from L-363 cell lysate; endogenous in cells; host or cells: L-363 (DSMZ ACC49), treated with MG132 before harvest
Kind of assay: Kinobeads competition binding, L-363 cell lysate. Particulars: 10 μM free compound, L-363 lysate. The method, then: as §1, §2

Another assay concerns the target T4, ULK3 (Homo sapiens, UniProt Q6PHR2).
T4 sequence (Q6PHR2 1-472): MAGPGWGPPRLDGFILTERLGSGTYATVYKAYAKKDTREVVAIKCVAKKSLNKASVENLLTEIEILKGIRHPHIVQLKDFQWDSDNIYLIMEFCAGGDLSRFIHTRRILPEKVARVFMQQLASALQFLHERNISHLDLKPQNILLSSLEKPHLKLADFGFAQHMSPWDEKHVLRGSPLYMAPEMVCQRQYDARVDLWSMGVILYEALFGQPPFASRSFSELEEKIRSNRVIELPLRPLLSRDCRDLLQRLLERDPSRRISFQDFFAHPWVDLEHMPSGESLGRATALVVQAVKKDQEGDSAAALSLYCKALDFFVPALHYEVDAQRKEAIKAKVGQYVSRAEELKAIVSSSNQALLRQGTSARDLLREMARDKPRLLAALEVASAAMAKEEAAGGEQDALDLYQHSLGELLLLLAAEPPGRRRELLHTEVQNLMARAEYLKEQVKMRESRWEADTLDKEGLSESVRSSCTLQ
Kind of assay: Kinobeads competition binding, L-363 cell lysate. Particulars: 10 μM free compound, L-363 lysate. The protocol:
as §1, §2

In another assay the target is T5, JAK3 (Homo sapiens, UniProt P52333).
T5 construct: capturing and identification of kinases from L-363 cell lysate; endogenous in cells; host or cells: L-363 (DSMZ ACC49), treated with MG132 before harvest
T5 sequence (P52333 whole entry): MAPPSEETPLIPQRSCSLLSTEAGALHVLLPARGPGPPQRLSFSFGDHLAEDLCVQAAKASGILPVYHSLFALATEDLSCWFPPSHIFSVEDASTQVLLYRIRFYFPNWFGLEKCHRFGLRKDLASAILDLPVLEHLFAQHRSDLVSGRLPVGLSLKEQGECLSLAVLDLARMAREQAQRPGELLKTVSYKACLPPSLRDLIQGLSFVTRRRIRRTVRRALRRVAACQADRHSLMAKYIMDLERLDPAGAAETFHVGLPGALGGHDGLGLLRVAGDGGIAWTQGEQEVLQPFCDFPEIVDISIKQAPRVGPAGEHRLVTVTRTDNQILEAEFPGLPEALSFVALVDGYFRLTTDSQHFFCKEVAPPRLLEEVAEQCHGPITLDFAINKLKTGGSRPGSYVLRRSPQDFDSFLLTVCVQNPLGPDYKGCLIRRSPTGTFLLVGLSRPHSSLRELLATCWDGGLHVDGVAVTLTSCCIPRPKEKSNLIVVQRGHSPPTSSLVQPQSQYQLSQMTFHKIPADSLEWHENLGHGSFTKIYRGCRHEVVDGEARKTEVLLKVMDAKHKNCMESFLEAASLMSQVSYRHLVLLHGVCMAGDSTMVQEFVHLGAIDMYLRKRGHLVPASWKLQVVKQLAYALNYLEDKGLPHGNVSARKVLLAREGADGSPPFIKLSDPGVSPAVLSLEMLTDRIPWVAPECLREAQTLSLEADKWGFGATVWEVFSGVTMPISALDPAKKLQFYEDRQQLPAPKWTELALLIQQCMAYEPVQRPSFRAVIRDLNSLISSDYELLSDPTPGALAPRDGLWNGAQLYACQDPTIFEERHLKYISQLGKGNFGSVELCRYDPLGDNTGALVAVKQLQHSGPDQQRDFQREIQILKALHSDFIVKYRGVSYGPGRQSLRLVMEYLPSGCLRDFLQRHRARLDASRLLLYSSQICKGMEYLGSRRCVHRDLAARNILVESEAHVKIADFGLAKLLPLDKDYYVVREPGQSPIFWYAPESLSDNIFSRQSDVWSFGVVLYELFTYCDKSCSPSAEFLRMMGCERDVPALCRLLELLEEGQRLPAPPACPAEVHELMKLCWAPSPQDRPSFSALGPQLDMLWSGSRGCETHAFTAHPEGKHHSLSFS
The assay can be described thus: Kinobeads competition binding, L-363 cell lysate. The conditions noted are these: 10 μM free compound, L-363 lysate. The method, then:
as §1, §2

For the next assay, the target named is T6, NEK1 (Homo sapiens, UniProt Q96PY6).
T6 construct: capturing and identification of kinases from L-363 cell lysate; endogenous in cells; host or cells: L-363 (DSMZ ACC49), treated with MG132 before harvest
The assay can be described thus: Kinobeads competition binding, L-363 cell lysate. Particulars: 10 μM free compound, L-363 lysate. The protocol: as §1, §2

The target of a further assay is T7, DRAK2 (Homo sapiens, UniProt O94768).
T7 construct: capturing and identification of kinases from L-363 cell lysate; endogenous in cells; host or cells: L-363 (DSMZ ACC49), treated with MG132 before harvest
The assay can be described thus: Kinobeads competition binding, L-363 cell lysate. Particulars: 10 μM free compound, L-363 lysate. The protocol: as §1, §2

The next assay has as its target T8, ULK1 (Homo sapiens, UniProt O75385).
T8 construct: endogenous in cells; host or cells: L-363 (DSMZ ACC49), treated with MG132 before harvest
Kind of assay: Kinobeads competition binding, L-363 cell lysate. The conditions noted are these: 10 μM free compound, L-363 lysate. The protocol:
as §1, §2

A further assay deals with T9, NEK7 (Homo sapiens, UniProt Q8TDX7).
T9 construct: capturing and identification of kinases from L-363 cell lysate; endogenous in cells; host or cells: L-363 (DSMZ ACC49), treated with MG132 before harvest
T9 sequence (Q8TDX7 whole entry): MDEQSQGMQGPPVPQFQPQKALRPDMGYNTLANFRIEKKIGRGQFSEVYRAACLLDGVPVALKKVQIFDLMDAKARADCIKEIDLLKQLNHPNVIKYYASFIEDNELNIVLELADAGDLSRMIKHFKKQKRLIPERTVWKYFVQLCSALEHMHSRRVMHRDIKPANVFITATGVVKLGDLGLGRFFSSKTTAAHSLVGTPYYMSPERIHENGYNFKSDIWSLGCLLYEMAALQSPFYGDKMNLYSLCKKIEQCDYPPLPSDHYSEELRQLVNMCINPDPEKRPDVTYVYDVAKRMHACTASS
The assay can be described thus: Kinobeads competition binding, L-363 cell lysate. Particulars: 10 μM free compound, L-363 lysate. The protocol:
as §1, §2

A further assay deals with T10, DYRK1A (Homo sapiens, UniProt Q13627).
T10 construct: capturing and identification of kinases from L-363 cell lysate; endogenous in cells; host or cells: L-363 (DSMZ ACC49), treated with MG132 before harvest
The assay can be described thus: Kinobeads competition binding, L-363 cell lysate. The conditions noted are these: 10 μM free compound, L-363 lysate. The protocol:
as §1, §2

A further assay concerns the target T11, HRI (Homo sapiens, UniProt Q9BQI3).
T11 construct: capturing and identification of kinases from L-363 cell lysate; endogenous in cells; host or cells: L-363 (DSMZ ACC49), treated with MG132 before harvest
Kind of assay: Kinobeads competition binding, L-363 cell lysate. The conditions noted are these: 10 μM free compound, L-363 lysate. The method, then:
as §1, §2

A further assay deals with T12, INSR (Homo sapiens, UniProt P06213).
T12 construct: capturing and identification of kinases from L-363 cell lysate; endogenous in cells; host or cells: L-363 (DSMZ ACC49), treated with MG132 before harvest
The assay can be described thus: Kinobeads competition binding, L-363 cell lysate. Particulars: 10 μM free compound, L-363 lysate. The method, then:
as §1, §2

A further assay addresses T13, TBK1 (Homo sapiens, UniProt Q9UHD2).
T13 sequence (Q9UHD2 1-729): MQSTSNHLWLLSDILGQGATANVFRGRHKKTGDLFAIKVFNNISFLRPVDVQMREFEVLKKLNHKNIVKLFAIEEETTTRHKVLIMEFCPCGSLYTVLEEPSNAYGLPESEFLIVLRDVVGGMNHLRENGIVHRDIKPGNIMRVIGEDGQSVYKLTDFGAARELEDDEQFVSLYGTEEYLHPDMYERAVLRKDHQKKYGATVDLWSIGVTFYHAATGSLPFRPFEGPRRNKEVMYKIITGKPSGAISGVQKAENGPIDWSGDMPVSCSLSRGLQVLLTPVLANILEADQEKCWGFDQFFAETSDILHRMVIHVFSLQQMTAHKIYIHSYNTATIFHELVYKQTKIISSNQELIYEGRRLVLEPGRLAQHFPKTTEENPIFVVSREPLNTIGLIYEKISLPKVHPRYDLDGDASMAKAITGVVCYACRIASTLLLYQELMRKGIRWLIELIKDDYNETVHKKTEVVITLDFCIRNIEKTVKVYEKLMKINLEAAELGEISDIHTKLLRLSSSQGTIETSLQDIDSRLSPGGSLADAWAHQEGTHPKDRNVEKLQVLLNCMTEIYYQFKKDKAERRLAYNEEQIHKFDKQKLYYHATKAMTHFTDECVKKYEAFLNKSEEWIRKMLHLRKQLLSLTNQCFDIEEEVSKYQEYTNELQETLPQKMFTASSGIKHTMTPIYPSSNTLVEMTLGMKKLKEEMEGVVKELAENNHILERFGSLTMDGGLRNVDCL
Kind of assay: Kinobeads competition binding, HeLa Placenta lysate mix. Set-up: endogenous in cells. Particulars: 10 μM free compound. Summed up: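 Competition pulldown: free compound at 10 μM competes with an immobilized-compound affinity matrix for lysate proteins. Captured proteins undergo SDS-PAGE and in-gel tryptic digestion, then iTRAQ-labeled LC-MS/MS quantification relative to a DMSO-treated aliquot.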

T1 sequence (P42356 whole entry): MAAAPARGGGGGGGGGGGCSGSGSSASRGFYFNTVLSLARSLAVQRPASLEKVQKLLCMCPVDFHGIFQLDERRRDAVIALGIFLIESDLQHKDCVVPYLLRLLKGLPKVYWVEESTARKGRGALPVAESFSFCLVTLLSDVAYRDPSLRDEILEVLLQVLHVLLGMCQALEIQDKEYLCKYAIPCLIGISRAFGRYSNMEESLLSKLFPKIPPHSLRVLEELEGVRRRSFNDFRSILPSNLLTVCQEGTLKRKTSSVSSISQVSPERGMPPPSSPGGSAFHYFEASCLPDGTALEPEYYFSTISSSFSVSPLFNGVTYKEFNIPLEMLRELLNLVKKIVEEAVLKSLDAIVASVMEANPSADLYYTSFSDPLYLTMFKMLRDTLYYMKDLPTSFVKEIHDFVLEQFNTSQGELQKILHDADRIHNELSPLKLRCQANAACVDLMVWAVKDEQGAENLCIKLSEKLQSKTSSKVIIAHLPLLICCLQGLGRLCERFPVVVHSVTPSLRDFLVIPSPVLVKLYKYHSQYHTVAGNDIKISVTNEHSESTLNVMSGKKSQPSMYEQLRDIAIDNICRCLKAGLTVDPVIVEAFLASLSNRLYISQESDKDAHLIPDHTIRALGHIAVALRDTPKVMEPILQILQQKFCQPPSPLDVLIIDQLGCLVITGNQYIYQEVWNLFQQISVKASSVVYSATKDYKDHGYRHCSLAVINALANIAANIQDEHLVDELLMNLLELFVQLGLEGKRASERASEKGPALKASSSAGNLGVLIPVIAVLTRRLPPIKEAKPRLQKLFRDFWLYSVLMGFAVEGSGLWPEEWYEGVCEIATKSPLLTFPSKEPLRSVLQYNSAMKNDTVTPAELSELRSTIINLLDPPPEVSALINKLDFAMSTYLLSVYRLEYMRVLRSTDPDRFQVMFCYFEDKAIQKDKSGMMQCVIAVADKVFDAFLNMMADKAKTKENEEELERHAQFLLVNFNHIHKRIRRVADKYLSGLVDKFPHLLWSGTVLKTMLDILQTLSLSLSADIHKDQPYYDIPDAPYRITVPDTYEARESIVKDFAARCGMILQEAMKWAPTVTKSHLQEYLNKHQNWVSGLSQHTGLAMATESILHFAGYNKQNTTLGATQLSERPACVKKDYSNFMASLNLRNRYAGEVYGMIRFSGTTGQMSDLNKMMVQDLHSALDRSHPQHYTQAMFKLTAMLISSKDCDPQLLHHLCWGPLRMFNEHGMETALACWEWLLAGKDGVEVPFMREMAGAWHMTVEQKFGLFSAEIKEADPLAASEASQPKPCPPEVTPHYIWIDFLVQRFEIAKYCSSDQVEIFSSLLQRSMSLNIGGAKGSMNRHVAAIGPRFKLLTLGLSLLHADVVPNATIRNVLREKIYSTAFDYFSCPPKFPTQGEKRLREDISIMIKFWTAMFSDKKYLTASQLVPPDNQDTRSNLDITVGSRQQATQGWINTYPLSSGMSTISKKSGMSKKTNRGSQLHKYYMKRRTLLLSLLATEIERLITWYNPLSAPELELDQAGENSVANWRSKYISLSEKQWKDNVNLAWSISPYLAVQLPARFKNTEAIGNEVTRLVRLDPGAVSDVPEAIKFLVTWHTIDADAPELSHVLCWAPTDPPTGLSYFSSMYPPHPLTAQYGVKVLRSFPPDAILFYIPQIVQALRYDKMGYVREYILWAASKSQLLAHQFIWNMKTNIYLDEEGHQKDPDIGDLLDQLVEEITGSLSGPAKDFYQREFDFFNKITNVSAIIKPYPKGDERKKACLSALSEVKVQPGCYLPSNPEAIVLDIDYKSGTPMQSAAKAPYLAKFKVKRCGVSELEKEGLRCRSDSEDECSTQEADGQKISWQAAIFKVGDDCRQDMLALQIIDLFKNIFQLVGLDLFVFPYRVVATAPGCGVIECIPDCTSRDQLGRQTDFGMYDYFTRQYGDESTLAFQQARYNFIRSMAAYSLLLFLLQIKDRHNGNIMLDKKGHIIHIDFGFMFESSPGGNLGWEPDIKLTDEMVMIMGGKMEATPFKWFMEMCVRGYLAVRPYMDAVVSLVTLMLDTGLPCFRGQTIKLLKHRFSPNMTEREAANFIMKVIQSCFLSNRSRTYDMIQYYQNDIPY
T11 sequence (Q9BQI3 whole entry): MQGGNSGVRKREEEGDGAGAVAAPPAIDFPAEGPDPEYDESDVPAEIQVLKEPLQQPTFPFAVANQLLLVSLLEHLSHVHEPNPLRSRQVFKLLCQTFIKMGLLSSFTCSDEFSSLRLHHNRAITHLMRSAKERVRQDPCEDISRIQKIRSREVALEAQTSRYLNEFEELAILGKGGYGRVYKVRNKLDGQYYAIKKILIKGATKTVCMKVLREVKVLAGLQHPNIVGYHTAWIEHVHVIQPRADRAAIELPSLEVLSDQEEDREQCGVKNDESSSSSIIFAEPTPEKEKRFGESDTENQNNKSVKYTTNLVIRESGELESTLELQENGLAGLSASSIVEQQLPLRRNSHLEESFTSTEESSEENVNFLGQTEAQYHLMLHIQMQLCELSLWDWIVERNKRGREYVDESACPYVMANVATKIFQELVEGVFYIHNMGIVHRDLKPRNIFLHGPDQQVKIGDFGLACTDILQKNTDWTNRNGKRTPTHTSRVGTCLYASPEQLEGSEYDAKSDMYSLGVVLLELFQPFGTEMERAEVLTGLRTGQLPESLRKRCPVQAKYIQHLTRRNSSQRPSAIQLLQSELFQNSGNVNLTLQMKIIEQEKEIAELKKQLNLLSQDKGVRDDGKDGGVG

Take `CS(=O)(=O)Nc1ccccc1Nc1nc(Nc2cccc(OCCN)c2)ncc1Cl` [CZC31326, N-(2-(2-(3-(2-aminoethoxy)phenylamino)-5-chloropyrimidin-4-ylamino)phenyl)methanesulfonamide]: the inhibition at 10 µM amounted to 86% on PIK4Ca; 98% on NIK; 83.7% at NEK6; 98.1% at JAK3; 95.7% at NEK1; 93.3% on DRAK2. The inhibition at 10 µM at NEK7 came to 93.9%; on DYRK1A it was 96.5%; at HRI, 95.8%; at INSR, 90.1%; at TBK1, 93.8%. Further, the Competition % on ULK3 was found to be 98.5%; at ULK1, 96.5%.
